Assay results reported in article PMC5815658 (Journal of Medicinal Chemistry, 2017).
Like-named read-outs stand apart in the source and are kept apart here.

Target: T1, CRBN-DDB1 complex (Homo sapiens, UniProt Q96SW2)
T1 construct: His6-ZZ-HRV3C (N); made in house; host or cells: Sf9 insect cells (baculovirus co-infection)
Experiment: CRBN/DDB1 fluorescence polarization competition assay
Type: binding
Description: CRBN/DDB1 Fluorescence Polarization Assay […]
Unless otherwise stated, the aqueous assay buffer contained 0.02 M HEPES((4-(2-hydroxyethyl)-1-piperazineethanesulfonic acid)) pH 8.0, 0.15 M NaCl, 0.5 mM TCEP ((tris(2-carboxyethyl)phosphine)), 0.05% Tween 20. The assay was conducted using 384 well black plates (ProxiPlate F Plus, Perkin-Elmer, Massachusetts, USA).
Plate Reader. […] Fluorescence […]
polarization was measured in units of millipolarization (mP) and are background corrected. Data were plotted and analyzed using […]
All experiments were performed in triplicate unless otherwise stated. Values are quoted as the geometric […]
Each graph is a representative example of a single biological repeat unless otherwise stated.
CRBN/DDB1 Protein Expression & Purification
Protein expression and purification methods adapted from Lopez-Girona et al.5 Full length human CRBN (accession number NM016302) was amplified by PCR & inserted downstream of the polyhedrin promoter of a pFBDM expression vector which had been modified to introduce a N-terminal His6-ZZ-HRV3C tag. Full length human DDB1 (accession number NM001923) was amplified by PCR with primers which introduced a C-terminal StrepTag and inserted downstream of the p10 promoter of a separate pFBDM expression vector. Baculoviruses were generated according to Bac-to-Bac protocols (Invitrogen) and used to co-infect Sf9 cells grown @ 27 °C in shaker flasks using Insect-XPRESS media (Lonza). Cells were harvested 48 hours post infection and frozen. For purification, pellets were thawed & resuspended in 5 volumes of Histrap buffer A (see below) and lysed […]
Superdex 200 (HiLoad 26/600), ResourceQ (6 mL) and finally a second Superdex 200 (HiLoad 26/600) column. All columns were from GE Healthcare and all purification steps were performed @ 4 °C. HisTrap buffer A: 50mM Tris (2-Amino-2-(hydroxymethyl)propane-1,3-diol), 500mM NaCl, 0.5mM TCEP ((tris(2-carboxyethyl)phosphine), 5% glycerol, pH 8.0. HisTrap Buffer B: + 250 mM imidazole. Superdex 200 buffer: 50mM Tris, 200mM NaCl, 0.5mM TCEP, 5% glycerol, pH 8.0. Resource Q buffer A: 50mM Tris, 0.5mM TCEP, 5% Glycerol, pH8.0. Resource Q buffer B + 1M NaCl.
California, USA) to prepare CRBN/DDB1 concentrations from 0.1 to 500 nM in 10 µL final assay volume containing 5 nM FP- […]
point prior to analysis. The KD was calculated using non-linear regression and a one-site specific binding model.
Analysis of competition assay FP-probe bound fraction […]
fb=probe bound fraction, KD=probe dissociation constant, L0=probe concentration, R0=protein concentration, Ki=ligand […]
CRBN/DDB1 Competition Assay
Compounds as solutions in DMSO were dispensed using an ECHO 550 Liquid Handler (Labcyte Inc).
Tracer controls (5 nM FP-probe S18 assay buffer only) and bound tracer controls (5 nM and 80 nM CRBN/DDB1) were included on each assay plate . Plates were incubated overnight at 4 °C before warming to room temperature and fluorescence polarization measured using an EnVision plate reader (Perkin -Elmer, Massachusetts, USA). IC 50 values […]
Table S2. CRBN/DDB1 Control Compounds

IC50 (CRBN/DDB1 FP IC50, single repeat N=2, best-fit value, variable slope four parameters): 323 nM
IC50 (best-fit value, variable slope four parameters, read-out: CRBN/DDB1 FP IC50, single repeat N=1): 715 nM
IC50 (best-fit value, variable slope four parameters, read-out: CRBN/DDB1 FP IC50, single repeat N=3): 519 nM
Ki (calculated from geometric mean CRBN-DDB1 IC50 and FP-probe KD): 120 nM
IC50 (column statistics, read-out: CRBN/DDB1 FP pIC50, mean of 3 values (unrounded) (converted)): 493 nM
IC50 (displacement of thalidomide derived fluorescent probe, geometric mean n = 3, read-out: CRBN/DDB1 FP IC50): 490 nM
SMILES: O=C1CCC(N2C(=O)c3cccc(OCCOCCOCCN4CCN(Cc5ccc6cc(C(=O)Nc7cc(NC(=O)c8ccc9c(c8)OCCO9)ccc7Cl)ccc6n5)CC4)c3C2=O)C(=O)N1 (stereo not drawn) [PDP 16, N-(2-Chloro-5-(2,3-dihydrobenzo[b][1,4]dioxine-6-carboxamido)phenyl)-2-((4-(2-(2-(2-((2-(2,6-dioxopiperidin-3-yl)-1,3-dioxoisoindolin-4-yl)oxy)ethoxy)ethoxy)ethyl)piperazin-1-yl)methyl)quinoline-6-carboxamide]
